Assay [1] deals with HL-60. Description: Cytotoxicity against human HL60 cells after 48 hrs by trypan blue exclusion method. Format: functional, cell-based.
A short description of assay [2]: Antitumor activity against human MV522 cells xenografted BALB/c nu/nu mouse assessed as increase in life span at 10 mg/kg, iv administered three times per week for 3 weeks. The class given is functional. For orientation: A xenograft is tissue or cells of one species grown in another, often human tumour cells in immunodeficient mice.
The test system of assay [3] is MV522. Description: Antitumor activity against human MV522 cells xenografted BALB/c nu/nu mouse assessed as induction of tumor regression at 10 mg/kg, iv administered three times per week for 3 weeks. The class given is functional, organism-based. Set-up: dose 10 mg/kg.
[4] abbreviates: Homo sapiens, HL-60, 48 h, read-out: IC50.

Activity calls are given as the source filed them. The rule behind the calls is not given here.

Broadly, the IC50 is the midpoint of a concentration-inhibition curve. `COc1ccc(CC2=C(C)C=C3C(=O)[C@](C)(O)C4(CC4)C(C)=C32)cc1`: the IC50 in assay [1] (setting [4]) worked out at 1050 nM.

For `CC1=C(CSc2ccc(C)cc2)C2=C(C)C3(CC3)[C@@](C)(O)C(=O)C2=C1`, in assay [1] (hl-60), the IC50 entry is recorded as “ND(Insoluble)”.

For `CC1=C(Cc2ccc(O)cc2)C2=C(C)C3(CC3)[C@@](C)(O)C(=O)C2=C1`, in assay [1] (setting [4]), the IC50 is 380 nM.

Turning to `CC1=CC2=C(C)C3(CC3)[C@@](C)(O)C(=O)C2=C1` [ACYLFULVENE], in assay [1] (setting [4]), the IC50 came to 415 nM.

In the case of `CC1=C2C(=O)C(C)(C)C=C2C(=O)[C@](C)(O)C12CC2` [DEHYDROILLUDIN M], in assay [1] (setting [4]), the IC50 turned out to be 296 nM.

As for `CC1=C(CO)C2=C(C)C3(CC3)[C@@](C)(O)C(=O)C2=C1` [IROFULVEN], in assay [2], the Activity was 150%. Besides, in assay [3], the result was Active. In addition, the IC50 in assay [1] (setting [4]) came to 73 nM.

The values above are taken from ChEMBL document CHEMBL1158296, “(Hydroxymethyl)acylfulvene: an illudin derivative with superior antitumor properties” (J Nat Prod, 1996).
